pIC50: −log10 of the molar value. One block for each compound: values may come before it.
Tests used:
Homo sapiens [1] = organism: Homo sapiens; experiment: Selectivity ratio of IC50 for human HDAC9 to IC50 for human HDAC6
Homo sapiens [2] = organism: Homo sapiens; experiment: Selectivity ratio of IC50 for human HDAC7 to IC50 for human HDAC6
Homo sapiens [3] = organism: Homo sapiens; experiment: Selectivity ratio of IC50 for human HDAC8 to IC50 for human HDAC6
Homo sapiens [4] = organism: Homo sapiens; experiment: Selectivity ratio of IC50 for human HDAC4 to IC50 for human HDAC6
Homo sapiens [5] = organism: Homo sapiens; experiment: Selectivity ratio of IC50 for human HDAC1 to IC50 for human HDAC6
Homo sapiens [6] = organism: Homo sapiens; experiment: Selectivity ratio of IC50 for human HDAC2 to IC50 for human HDAC6
Homo sapiens [7] = organism: Homo sapiens; experiment: Selectivity ratio of IC50 for human HDAC5 to IC50 for human HDAC6
Homo sapiens [8] = organism: Homo sapiens; experiment: Selectivity ratio of IC50 for human HDAC10 to IC50 for human HDAC6
Homo sapiens [9] = organism: Homo sapiens; experiment: Selectivity ratio of IC50 for human HDAC11 to IC50 for human HDAC6
Homo sapiens [10] = organism: Homo sapiens; experiment: Selectivity ratio of IC50 for human HDAC3 to IC50 for human HDAC6
MCF7 = experiment: Antiproliferative activity against human MCF7 incubated for 72 hrs by MTT assay; assay type: functional
HEK293T = experiment: Selectivity ratio of IC50 for Flag-tagged HDAC1 (unknown origin) expressed in 293T cells to IC50 for Flag-tagged HDAC6 (unknown origin) expressed in 293T cells; assay type: cell-based; details: Homo sapiens
Histone deacetylase 1 [11] = target: T1, Histone deacetylase 1 (Homo sapiens, UniProt Q13547); experiment: Inhibition of Flag-tagged HDAC1 (unknown origin) expressed in 293T cells using ZMAL as substrate incubated for 180 mins by fluorescence method; design: species or system HEK293T
T1 sequence (Q13547 whole entry): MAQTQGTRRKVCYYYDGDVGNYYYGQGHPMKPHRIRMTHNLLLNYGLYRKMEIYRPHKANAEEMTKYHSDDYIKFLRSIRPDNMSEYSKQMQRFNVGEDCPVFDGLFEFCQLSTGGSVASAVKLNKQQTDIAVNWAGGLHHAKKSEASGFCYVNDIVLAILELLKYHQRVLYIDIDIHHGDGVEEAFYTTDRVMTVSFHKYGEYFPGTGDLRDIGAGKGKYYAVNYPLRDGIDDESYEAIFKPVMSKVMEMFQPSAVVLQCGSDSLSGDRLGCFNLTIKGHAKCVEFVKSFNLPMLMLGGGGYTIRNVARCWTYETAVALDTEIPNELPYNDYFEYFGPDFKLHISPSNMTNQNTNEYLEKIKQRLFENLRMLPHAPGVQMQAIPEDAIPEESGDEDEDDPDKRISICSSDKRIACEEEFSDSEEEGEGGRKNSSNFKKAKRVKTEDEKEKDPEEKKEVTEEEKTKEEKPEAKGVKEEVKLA

[12] = target: T2, Protein deacetylase HDAC6 (Homo sapiens, UniProt Q9UBN7); experiment: Inhibition of Flag-tagged HDAC6 (unknown origin) expressed in 293T cells using ZMAL as substrate incubated for 180 mins by fluorescence method; design: species or system HEK293T
T2 sequence (Q9UBN7 whole entry): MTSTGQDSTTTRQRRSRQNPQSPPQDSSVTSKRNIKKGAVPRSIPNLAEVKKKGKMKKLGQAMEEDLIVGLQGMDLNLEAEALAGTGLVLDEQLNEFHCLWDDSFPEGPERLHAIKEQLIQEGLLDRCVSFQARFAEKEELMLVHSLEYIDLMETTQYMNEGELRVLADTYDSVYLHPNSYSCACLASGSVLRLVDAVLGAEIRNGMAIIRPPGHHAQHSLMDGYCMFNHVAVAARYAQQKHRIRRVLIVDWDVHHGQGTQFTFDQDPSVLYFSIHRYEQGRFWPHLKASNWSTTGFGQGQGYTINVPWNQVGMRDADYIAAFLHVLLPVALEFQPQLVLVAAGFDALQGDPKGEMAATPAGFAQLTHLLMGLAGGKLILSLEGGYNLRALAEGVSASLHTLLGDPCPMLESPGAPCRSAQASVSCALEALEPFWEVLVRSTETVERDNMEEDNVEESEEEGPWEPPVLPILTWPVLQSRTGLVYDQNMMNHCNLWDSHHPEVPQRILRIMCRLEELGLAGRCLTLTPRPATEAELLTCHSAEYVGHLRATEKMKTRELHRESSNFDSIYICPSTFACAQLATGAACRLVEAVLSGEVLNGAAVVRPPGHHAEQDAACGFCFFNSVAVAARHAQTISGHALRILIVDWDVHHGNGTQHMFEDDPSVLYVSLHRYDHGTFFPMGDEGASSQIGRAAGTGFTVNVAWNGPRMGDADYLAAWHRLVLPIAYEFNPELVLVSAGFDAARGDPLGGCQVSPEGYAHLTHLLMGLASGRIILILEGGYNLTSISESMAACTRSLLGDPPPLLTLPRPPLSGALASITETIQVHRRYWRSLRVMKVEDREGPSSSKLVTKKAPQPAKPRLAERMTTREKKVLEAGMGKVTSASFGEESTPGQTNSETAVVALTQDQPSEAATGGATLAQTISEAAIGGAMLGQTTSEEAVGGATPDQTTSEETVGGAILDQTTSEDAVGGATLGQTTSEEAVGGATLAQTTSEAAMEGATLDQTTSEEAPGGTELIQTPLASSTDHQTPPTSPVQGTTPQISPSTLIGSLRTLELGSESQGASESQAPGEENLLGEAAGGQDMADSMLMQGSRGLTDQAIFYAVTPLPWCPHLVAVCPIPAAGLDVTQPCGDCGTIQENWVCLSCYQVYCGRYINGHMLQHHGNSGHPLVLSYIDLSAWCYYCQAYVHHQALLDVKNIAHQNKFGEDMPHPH

[13] = target: T2, Protein deacetylase HDAC6; experiment: Inhibition of human HDAC6 using fluorogenic HDAC substrate incubated for 30 mins by fluorimetry
Histone deacetylase 9 = Histone deacetylase 9 (Homo sapiens, UniProt Q9UKV0); experiment: Inhibition of human HDAC9 using fluorogenic HDAC substrate incubated for 30 mins by fluorimetry
Histone deacetylase 8 = Histone deacetylase 8 (Homo sapiens, UniProt Q9BY41); experiment: Inhibition of human HDAC8 using fluorogenic HDAC substrate incubated for 60 mins by fluorimetry
Sequence of Histone deacetylase 8 (Q9BY41 whole entry): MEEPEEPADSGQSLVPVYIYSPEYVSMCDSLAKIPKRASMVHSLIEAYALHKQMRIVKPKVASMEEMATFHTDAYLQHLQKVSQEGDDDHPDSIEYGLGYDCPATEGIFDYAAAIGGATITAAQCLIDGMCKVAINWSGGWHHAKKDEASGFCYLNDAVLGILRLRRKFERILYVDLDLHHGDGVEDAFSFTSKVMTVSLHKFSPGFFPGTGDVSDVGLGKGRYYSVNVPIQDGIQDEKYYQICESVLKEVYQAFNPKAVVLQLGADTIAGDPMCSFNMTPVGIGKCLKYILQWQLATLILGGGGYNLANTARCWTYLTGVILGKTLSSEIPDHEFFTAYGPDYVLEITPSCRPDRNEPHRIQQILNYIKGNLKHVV

Histone deacetylase 5 = Histone deacetylase 5 (Homo sapiens, UniProt Q9UQL6); experiment: Inhibition of human HDAC5 using fluorogenic HDAC substrate incubated for 30 mins by fluorimetry
Sequence of Histone deacetylase 5 (Q9UQL6 whole entry): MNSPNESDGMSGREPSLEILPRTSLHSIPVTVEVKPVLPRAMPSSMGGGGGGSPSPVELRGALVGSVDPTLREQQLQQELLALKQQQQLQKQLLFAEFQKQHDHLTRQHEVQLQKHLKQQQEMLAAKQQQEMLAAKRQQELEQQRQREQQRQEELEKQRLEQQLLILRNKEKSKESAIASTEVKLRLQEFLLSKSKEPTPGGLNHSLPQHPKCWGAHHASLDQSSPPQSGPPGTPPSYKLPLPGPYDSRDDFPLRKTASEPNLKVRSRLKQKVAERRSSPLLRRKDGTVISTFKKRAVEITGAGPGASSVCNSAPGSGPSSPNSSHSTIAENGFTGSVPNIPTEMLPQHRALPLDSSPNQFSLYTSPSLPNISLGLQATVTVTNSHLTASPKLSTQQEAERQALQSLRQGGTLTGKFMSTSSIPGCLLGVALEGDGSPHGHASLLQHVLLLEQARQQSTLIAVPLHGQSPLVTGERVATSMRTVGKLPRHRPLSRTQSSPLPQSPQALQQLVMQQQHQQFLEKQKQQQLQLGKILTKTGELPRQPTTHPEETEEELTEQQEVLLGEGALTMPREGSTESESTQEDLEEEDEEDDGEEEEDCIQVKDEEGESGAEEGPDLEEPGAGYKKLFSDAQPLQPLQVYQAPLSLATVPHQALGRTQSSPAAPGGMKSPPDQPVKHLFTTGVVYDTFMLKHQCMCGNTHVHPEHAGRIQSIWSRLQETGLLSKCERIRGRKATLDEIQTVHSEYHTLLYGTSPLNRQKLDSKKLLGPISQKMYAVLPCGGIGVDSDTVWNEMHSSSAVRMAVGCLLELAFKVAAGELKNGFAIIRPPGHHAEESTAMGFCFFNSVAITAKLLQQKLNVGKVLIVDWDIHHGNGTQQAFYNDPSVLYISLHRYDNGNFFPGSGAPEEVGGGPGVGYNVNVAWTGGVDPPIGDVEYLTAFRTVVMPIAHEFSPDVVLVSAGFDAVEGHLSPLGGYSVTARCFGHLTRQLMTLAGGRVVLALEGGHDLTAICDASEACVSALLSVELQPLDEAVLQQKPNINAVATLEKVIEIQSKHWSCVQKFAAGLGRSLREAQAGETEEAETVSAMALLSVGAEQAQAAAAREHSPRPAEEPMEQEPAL

Histone deacetylase 2 = Histone deacetylase 2 (Homo sapiens, UniProt Q92769); experiment: Inhibition of human HDAC2 using fluorogenic HDAC substrate incubated for 15 mins by fluorimetry
Histone deacetylase 1 [14] = target: T1, Histone deacetylase 1; experiment: Inhibition of human HDAC1 using fluorogenic HDAC substrate incubated for 15 mins by fluorimetry
Histone deacetylase 3 = Histone deacetylase 3 (Homo sapiens, UniProt O15379); experiment: Inhibition of human HDAC3 using fluorogenic HDAC substrate incubated for 10 mins by spectrophotometric method
Sequence of Histone deacetylase 3 (O15379 whole entry): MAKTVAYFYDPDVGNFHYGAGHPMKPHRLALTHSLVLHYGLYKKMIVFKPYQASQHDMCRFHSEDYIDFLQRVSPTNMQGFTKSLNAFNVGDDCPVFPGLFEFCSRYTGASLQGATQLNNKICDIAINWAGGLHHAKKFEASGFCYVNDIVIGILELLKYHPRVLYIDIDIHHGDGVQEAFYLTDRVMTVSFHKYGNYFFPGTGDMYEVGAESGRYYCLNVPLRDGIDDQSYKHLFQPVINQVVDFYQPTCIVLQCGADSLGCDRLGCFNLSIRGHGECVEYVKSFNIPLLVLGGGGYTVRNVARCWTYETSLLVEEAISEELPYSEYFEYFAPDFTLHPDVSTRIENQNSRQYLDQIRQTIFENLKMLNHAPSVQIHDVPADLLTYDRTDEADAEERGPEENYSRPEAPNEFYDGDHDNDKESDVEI

Histone deacetylase 4 = Histone deacetylase 4 (Homo sapiens, UniProt P56524); experiment: Inhibition of human HDAC4 using fluorogenic HDAC substrate incubated for 30 mins by fluorimetry
Sequence of Histone deacetylase 4 (P56524 whole entry): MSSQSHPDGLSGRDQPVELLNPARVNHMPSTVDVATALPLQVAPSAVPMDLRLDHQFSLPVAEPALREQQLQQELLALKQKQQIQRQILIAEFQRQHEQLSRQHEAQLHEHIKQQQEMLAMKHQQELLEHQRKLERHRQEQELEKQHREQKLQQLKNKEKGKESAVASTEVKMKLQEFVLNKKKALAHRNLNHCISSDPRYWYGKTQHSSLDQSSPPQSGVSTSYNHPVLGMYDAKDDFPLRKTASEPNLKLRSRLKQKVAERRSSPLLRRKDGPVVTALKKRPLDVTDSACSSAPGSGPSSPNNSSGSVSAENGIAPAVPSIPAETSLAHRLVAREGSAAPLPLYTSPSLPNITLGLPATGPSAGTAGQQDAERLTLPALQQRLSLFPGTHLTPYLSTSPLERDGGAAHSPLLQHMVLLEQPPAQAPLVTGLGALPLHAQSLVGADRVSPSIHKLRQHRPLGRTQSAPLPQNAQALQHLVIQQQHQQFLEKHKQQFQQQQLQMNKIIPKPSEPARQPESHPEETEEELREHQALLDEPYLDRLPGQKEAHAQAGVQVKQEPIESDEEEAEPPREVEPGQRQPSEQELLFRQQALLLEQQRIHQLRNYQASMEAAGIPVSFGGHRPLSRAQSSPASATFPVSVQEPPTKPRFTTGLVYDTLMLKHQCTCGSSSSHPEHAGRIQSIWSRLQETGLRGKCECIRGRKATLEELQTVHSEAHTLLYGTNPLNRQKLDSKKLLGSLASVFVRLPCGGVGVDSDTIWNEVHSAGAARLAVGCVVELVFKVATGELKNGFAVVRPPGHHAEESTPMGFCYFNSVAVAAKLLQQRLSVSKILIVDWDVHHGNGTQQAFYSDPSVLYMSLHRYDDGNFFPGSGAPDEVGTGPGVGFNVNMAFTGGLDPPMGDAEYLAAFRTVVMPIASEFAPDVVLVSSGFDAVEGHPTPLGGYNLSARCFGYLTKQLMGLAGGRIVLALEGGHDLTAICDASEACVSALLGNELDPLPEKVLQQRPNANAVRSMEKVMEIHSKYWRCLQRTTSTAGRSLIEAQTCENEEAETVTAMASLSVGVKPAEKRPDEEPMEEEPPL

[15] = target: T3, Polyamine deacetylase HDAC10 (Homo sapiens, UniProt Q969S8); experiment: Inhibition of human HDAC10 using fluorogenic HDAC substrate incubated for 45 mins by fluorimetry
T3 sequence (Q969S8 whole entry): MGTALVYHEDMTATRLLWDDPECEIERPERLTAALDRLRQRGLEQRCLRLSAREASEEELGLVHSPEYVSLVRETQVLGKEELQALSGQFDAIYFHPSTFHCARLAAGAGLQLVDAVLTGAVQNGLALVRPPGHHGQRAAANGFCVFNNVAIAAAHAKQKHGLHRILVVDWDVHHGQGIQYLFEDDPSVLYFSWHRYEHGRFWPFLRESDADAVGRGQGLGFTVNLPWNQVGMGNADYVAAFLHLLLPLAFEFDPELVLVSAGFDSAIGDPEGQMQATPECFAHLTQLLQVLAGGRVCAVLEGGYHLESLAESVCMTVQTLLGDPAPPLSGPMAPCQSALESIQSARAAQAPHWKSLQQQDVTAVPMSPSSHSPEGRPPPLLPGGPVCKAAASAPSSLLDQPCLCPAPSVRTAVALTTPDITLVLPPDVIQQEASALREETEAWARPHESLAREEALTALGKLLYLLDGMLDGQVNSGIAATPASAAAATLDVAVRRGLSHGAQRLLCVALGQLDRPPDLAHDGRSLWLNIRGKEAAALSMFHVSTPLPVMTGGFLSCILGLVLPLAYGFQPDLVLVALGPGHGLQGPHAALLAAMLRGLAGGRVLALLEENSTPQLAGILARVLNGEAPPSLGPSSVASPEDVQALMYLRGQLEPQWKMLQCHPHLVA

Histone deacetylase 11 = Histone deacetylase 11 (Homo sapiens, UniProt Q96DB2); experiment: Inhibition of human HDAC11 using fluorogenic HDAC substrate incubated for 30 mins by fluorescence method
Sequence of Histone deacetylase 11 (Q96DB2 whole entry): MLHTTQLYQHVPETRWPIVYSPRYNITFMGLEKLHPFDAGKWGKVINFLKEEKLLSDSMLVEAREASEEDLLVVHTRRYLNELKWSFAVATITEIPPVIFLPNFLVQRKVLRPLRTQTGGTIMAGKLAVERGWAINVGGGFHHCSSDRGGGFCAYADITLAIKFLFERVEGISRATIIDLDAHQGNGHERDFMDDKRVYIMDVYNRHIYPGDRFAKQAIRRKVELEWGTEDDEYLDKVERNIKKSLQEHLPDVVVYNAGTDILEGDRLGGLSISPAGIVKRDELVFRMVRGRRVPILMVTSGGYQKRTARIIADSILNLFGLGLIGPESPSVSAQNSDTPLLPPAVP

[16] = target: NAD-dependent protein deacetylase sirtuin-1 (Homo sapiens, UniProt Q96EB6); experiment: Inhibition of human sirtuin 1 using fluorogenic HDAC substrate incubated for 20 mins by fluorimetry
Sequence of NAD-dependent protein deacetylase sirtuin-1 (Q96EB6 whole entry): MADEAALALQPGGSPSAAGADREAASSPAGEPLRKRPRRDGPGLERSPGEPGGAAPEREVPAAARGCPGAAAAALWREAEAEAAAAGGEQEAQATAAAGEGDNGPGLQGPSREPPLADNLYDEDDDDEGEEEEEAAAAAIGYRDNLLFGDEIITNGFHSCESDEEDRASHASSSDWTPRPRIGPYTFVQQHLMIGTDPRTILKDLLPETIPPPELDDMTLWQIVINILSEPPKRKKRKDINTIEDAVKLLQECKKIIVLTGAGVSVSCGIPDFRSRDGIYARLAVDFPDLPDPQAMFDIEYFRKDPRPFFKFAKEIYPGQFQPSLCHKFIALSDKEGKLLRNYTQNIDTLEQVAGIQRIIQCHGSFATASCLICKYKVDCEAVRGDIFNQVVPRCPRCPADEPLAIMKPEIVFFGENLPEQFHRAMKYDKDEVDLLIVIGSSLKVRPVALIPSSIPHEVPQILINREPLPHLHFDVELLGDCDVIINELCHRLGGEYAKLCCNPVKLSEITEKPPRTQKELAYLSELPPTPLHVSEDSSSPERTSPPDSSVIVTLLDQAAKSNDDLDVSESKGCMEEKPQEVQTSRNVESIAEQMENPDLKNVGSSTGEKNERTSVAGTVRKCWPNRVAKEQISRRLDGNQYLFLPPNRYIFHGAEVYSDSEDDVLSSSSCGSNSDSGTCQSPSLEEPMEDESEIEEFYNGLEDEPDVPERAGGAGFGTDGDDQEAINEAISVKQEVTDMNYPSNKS

MM1.S = experiment: Cytotoxicity against human MM1.S cells incubated for 48 hrs by MTT assay; assay type: functional, cell-based
OPM-2 = experiment: Cytotoxicity against human OPM-2 cells incubated for 48 hrs by MTT assay; assay type: functional, cell-based; details: OPM-2, 48 h
[17] = target: NAD-dependent protein deacetylase sirtuin-2 (Homo sapiens, UniProt Q8IXJ6); experiment: Inhibition of human sirtuin 2 using fluoro-lysine sirtuin 2 deacetylase as substrate incubated for 60 mins by fluorimetry
Sequence of NAD-dependent protein deacetylase sirtuin-2 (Q8IXJ6 whole entry): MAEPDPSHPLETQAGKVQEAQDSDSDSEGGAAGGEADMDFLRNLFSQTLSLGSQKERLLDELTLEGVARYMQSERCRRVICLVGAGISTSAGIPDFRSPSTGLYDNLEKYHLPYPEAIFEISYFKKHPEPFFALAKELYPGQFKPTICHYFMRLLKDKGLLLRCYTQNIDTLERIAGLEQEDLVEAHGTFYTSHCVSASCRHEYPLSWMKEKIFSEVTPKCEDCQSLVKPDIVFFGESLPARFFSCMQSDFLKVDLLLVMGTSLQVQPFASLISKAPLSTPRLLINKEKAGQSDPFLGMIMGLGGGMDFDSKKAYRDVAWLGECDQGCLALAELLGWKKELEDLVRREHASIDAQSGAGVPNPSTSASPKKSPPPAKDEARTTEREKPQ

[18] = target: T2, Protein deacetylase HDAC6; experiment: Inhibition of recombinant human HDAC6 expressed in baculovirus infected sf9 cells using fluor-de-Lys-SIRT1 as substrate by fluorescence method

SMILES: COC(=O)[C@H](Cc1ccccn1)NC(=O)CCCCCCC(=O)NO
- GI50 (MCF7): 104000 nM
- Ratio IC50 (HEK293T): 25
- pIC50 (Histone deacetylase 1 [11]): 4.00
- pIC50 [12]: 5.40

SMILES: O=C(CCCCCCNC(=O)c1cnc(N(c2ccccc2)c2ccccc2)nc1)NO [RICOLINOSTAT]
- pIC50 [16]: < 6.00
- pIC50 (MM1.S): 5.70
- pIC50 (OPM-2): 5.70
- pIC50 [17]: < 6.00

SMILES: COc1cc(C(=O)OCCCCCCCOC(=O)c2ccc(O)c(OC)c2)ccc1O
- pIC50 [18]: 6.70

Next, values leading:

- Ratio IC50 (Homo sapiens [1]): > 100
- Ratio IC50 (Homo sapiens [2]): > 100
- Ratio IC50 (Homo sapiens [3]): > 100
- Ratio IC50 (Homo sapiens [4]): > 100
- Ratio IC50 (Homo sapiens [5]): > 100
- Ratio IC50 (Homo sapiens [6]): > 100
- Ratio IC50 (Homo sapiens [7]): > 100
- Ratio IC50 (Homo sapiens [8]): > 100
- Ratio IC50 (Homo sapiens [9]): > 100
- Ratio IC50 (Homo sapiens [10]): > 100
SMILES: O=C(NO)c1ccc(NCc2csc3ccccc23)cc1

- pIC50 [13]: 8.09
- pIC50 (Histone deacetylase 9): 7.00
- pIC50 (Histone deacetylase 8): 6.00
- pIC50 (Histone deacetylase 5): 6.00
- pIC50 (Histone deacetylase 2): < 5.30
- pIC50 (Histone deacetylase 1 [14]): < 5.30
- pIC50 (Histone deacetylase 3): < 5.30
- pIC50 (Histone deacetylase 4): 6.00
- pIC50 [15]: < 5.30
- pIC50 (Histone deacetylase 11): < 5.30
SMILES: O=C(NO)c1ccc(Cn2c3c(c4ccccc42)S(=O)(=O)CC3)cc1

- Ratio IC50 (Homo sapiens [4]): 842
- Ratio IC50 (Homo sapiens [5]): 5790
SMILES: O=C(NO)c1ccc(Cn2c3c(c4ccccc42)CS(=O)(=O)CC3)cc1

- Ratio IC50 (Homo sapiens [5]): 1400
SMILES: Cc1nc2ccccc2n1Cc1ccc(C(=O)NO)cc1F

Reference: ChEMBL document CHEMBL4673207, “Recent advances in the discovery of potent and selective HDAC6 inhibitors” (Eur J Med Chem, 2018)
